Read-outs that look alike come from different tables or passages of the source.
Experiments:
Smad2/3 phosphorylation = assay: Phospho-Smad2/3 Inhibition Assay in Panc-1 (western blot); format: cell-based; details: Homo sapiens; for inhibition at 10 µM: 3 hours, PANC-1 stimulated with 10 ng/ml TGF-b1 for 1 hour, read-out: % inh of Smad2/3 phosphorylation in PANC-1; for IC50: PANC-1, TGF-b1 stimulated
Procedure: (§1) Cell lines: Human tumor-derived pancreatic cancer cell line Panc-1 and mouse muscle myoblast C2C12 were purchased from American Type Culture Collection and grown in complete DMEM-High Glucose, supplemented with penicillin (100 U/mL), streptomycin (100 μg/mL), and 10% heat-inactivated FBS at 37° C. in a humidified incubator with 5% CO2.
(§2) Method: Cells were plated at 350000 cells/well density in a 12-well plate, allowed 3 hours to adhere to the plate, then starved in the appropriate medium in the presence of 0.5% FBS overnight. The small molecules to be tested were added to the cells in the final concentration of 10 μM in the presence of 0.3% DMSO for 3 hours incubation at 37° C. For IC50 value determination, serial dilutions of compounds were added to cells under the same conditions. Next, Panc-1 cells were stimulated with 10 ng/ml TGF-b1 for 1 hour, and C2C12 cells were stimulated with 10 ng/ml TGF-b1 for 20 minutes (recombinant human TGF-b1, R&D Systems). After stimulation cells were lysed with lysis buffer containing 1% Triton X-100, EDTA, and Halt™ Protease & Phosphatase Inhibitor Cocktail (Thermo Scientific). Protein concentration was assessed by BCA protein assay (Thermo Scientific). Phosphorylation level of Smad2/Smad3 was determined by western blot.
(§3) Western blot protocol: Equal amounts of protein (15-50 μg) were separated by SDS-PAGE and transferred to nitrocellulose membranes (Invitrogen by Thermo Fisher Scientific). The membrane was stained with Ponceau S Stain (Boston BioProducts) to verify uniform protein loading. Membranes were blocked with 10% milk and phosphorylation levels of Smad2/Smad3 were assessed by incubating overnight at 4° C. with the following antibodies: Phospho-Smad2 (Ser465/467) and Phosph-Smad3 (Ser423/425), both from Cell Signaling Technology. Then the membranes were incubated with HRP-conjugated secondary antibody (Jackson Immunoresearch, West Grove, PA). Bands were incubated in Amersham ECL Prime Western Blotting Detection Reagent (GE Healthcare) and visualized using the ChemiDoc MP imaging system (Bio-Rad).

MAPK p38 = MAPK p38 Activation Assay in Panc-1 (western blot); format: cell-based, Human; set-up: key: Y = yes; N = No; details: at 10 μM
Procedure: as §1
as §2, with “MAPK p38” for “Smad2/Smad3”
as §3, with “antibody: Phospho-p38 MAPK (Thr180/Tyr182),” for “antibodies: Phospho-Smad2 (Ser465/467) and Phosph-Smad3 (Ser423/425), both”

KRas Q61H mutant = KRas Q61H mutant (Homo sapiens (Human), UniProt P01116, Q61H); assay: Ras GTP Binding Domain Inhibition Assay, KRas Q61H mutant
Procedure: (§4) A Ras Superfamily Activity Assay (as disclosed in International Application No. PCT/US2018/038613, filed Jun. 20, 2018, which is incorporated by reference in its entirety) was used as a specific assay to evaluate compounds against the following for the following Ras Superfamily proteins: KRas wild type, KRas Q61H mutant, KRas G12C mutant, KRas G12D mutant, Rac-1, and Rho-A.
(§5) Buffer-I: • 25 mM Tris-HCl, pH 7.4 • 27 mM KCl • 137 mM NaCl • 1 mM MgCl2 • 1 mM DTT
(§6) Buffer-II: • 50 mM Tris-HCl, pH 7.0 • 1 mM MgCl2 • 1 mM DTT
(§7) The small GTPases proteins: KRas wild type. KRas Q61H mutant, KRas G12C mutant, KRas G12D mutants, Rac-1, and Rho-A were expressed as His-tagged proteins. In addition, the Guanosine nucleotide Exchange Factor (GEF) Sos protein (residues 556-1049) was expressed as a His-tagged protein. In cells, the guanine nucleotide exchange factor Sos protein promotes activation of Ras proteins by stimulating an exchange of GDP for GTP. The inclusion of Sos to the Ras GTP binding domain inhibition assay may be considered as an alternative representation of physiological cellular conditions for evaluating the inhibitory activity of some of the tested small molecules.
(§8) For the assay, all purified small GTPases proteins were diluted in Buffer-I or Buffer-II to a final concentration of 10-30 μg/mL. 200 μL of each diluted protein was added to a nickel-coated 96-well plate and incubated overnight at 4° C. Then the protein solution was discarded and 200 μL of Buffer-I or Buffer-II was added to each well in the presence of 1% DMSO. Compounds to be tested were added to the protein-coated wells at final concentration of 20 μM, and incubated for 3 hours at room temperature with and without 10-30 μg/mL of Sos added to the final hour of the incubation. When performing IC50 measurements a serial dilution of all tested concentrations was added. Then Cy3-GTP or Cy5-GTP was added to each well to a final concentration of 100 nM. The labeled GTP was incubated for 45 minutes at room temperature. Following GTP incubation, wells were washed 3× in Buffer-I or Buffer-II and 200 μL of Buffer-I or Buffer-II was added to each well. Following washes, the amount of bound labeled-GTP was measured using a SpectraMax M3 (Molecular Devices).

Rac-1 = Rac-1 (Homo sapiens (Human), UniProt P63000); assay: Ras GTP Binding Domain Inhibition Assay, Rac-1
Procedure: as §4, §5, §6, §7, §8

[1] = + SOS, read-out: KRas Q61H mutant + SOS: % inh.
[2] = without SOS, read-out: KRas Q61H mutant: % inh.
[3] = + SOS, read-out: Rac-1 + SOS: % inh.
[4] = without SOS, read-out: Rac-1: % inh.

Sequence of KRas Q61H mutant (P01116 other isoform, or with tags, fused parts or gaps Q61H): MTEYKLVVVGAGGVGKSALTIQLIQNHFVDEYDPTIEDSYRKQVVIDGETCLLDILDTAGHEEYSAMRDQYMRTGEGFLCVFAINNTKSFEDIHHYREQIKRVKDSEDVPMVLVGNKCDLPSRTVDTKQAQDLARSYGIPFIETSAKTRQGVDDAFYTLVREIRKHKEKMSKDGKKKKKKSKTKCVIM

Row | SMILES | IC50 (Smad2/3 phosphorylation) | inhibition at 20 µM (KRas Q61H mutant; [1]) | inhibition at 20 µM (KRas Q61H mutant; [2]) | inhibition at 20 µM (Rac-1; [3]) | inhibition at 20 µM (Rac-1; [4]) | IC50 (KRas Q61H mutant; + SOS) | inhibition at 10 µM (Smad2/3 phosphorylation) | Activation of MAPK p38 in PANC-1 (MAPK p38)
1 | COc1cccc(-c2sc3nc(-c4nccn4C)nc(NC4CCC(OC)C4)c3c2C)c1F (racemic) [Compound 10, rac-6-(2-Fluoro-3-methoxyphenyl)-N-((1R,3S)-3-methoxycyclopentyl)-5-methyl-2-(1-methyl-1H-imidazol-2-yl)thieno[2,3-d]pyrimidin-4-amine and rac-6-(2-Fluoro-3-methoxyphenyl)-N-((1R,3R)-3-methoxycyclopentyl)-5-methyl-2-(1-methyl-1H-imidazol-2-yl)thieno[2,3-d]pyrimidin-4-amine] |  | 46 to 75% | 46 to 75% | 46 to 75% | 46 to 75% |  | 1 to 25% | Y
2 | CO[C@H]1CC[C@@H](Nc2nc(-c3nccn3C)nc3sc(-c4ccn(C(C)C)n4)c(C)c23)C1 (racemic) [Compound 12, rac-6-(1-Isopropyl-1H-pyrazol-3-yl)-N-((1R,3S)-3-methoxycyclopentyl)-5-methyl-2-(1-methyl-1H-imidazol-2-yl)thieno[2,3-d]pyrimidin-4-amine] |  | 76 to 100% | 76 to 100% | 46 to 75% | 46 to 75% | 5 to 10 µM | 1 to 25% | Y
3 | COCCNc1nc(-c2nccn2C)nc2sc(-c3ccccc3)c(-c3ccccc3)c12 [Compound 1, N-(2-Methoxyethyl)-2-(1-methyl-1H-imidazol-2-yl)-5,6-diphenylthieno[2,3-d]pyrimidin-4-amine] |  | 46 to 75% | 46 to 75% |  | 76 to 100% |  | 46 to 75% | N
4 | COCCCNc1nc(-c2nccn2C)nc2sc(-c3ccccc3)c(-c3ccccc3)c12 [Compound 3, N-(3-Methoxypropyl)-2-(1-methyl-1H-imidazol-2-yl)-5,6-diphenylthieno[2,3-d]pyrimidin-4-amine] |  | 46 to 75% | 46 to 75% |  | 46 to 75% |  | 0% | Y
5 | COCCNc1nc(-c2nccn2C)nc2sc(-c3ccccc3)c(-c3ccccc3Cl)c12 [Compound 4, 5-(2-Chlorophenyl)-N-(2-methoxyethyl)-2-(1-methyl-1H-imidazol-2-yl)-6-phenylthieno[2,3-d]pyrimidin-4-amine] |  |  |  |  | 26 to 45% |  | 26 to 45% | Y
6 | COCCNc1nc(-c2nccn2C)nc2sc(-c3cccc(OC)c3Cl)c(-c3ccc(OC)cc3)c12 [Compound 7, 6-(2-Chloro-3-methoxyphenyl)-N-(2-methoxyethyl)-5-(4-methoxyphenyl)-2-(1-methyl-1H-imidazol-2-yl)thieno[2,3-d]pyrimidin-4-amine] | 5 to 10 µM | 76 to 100% | 26 to 45% | 46 to 75% | 46 to 75% |  | 0% | Y
7 | COCCNc1nc(-c2cn(C)cn2)nc2sc(-c3cccc(OC)c3Cl)c(-c3ccc(OC)cc3)c12 [Compound 8, 6-(2-Chloro-3-methoxyphenyl)-N-(2-methoxyethyl)-5-(4-methoxyphenyl)-2-(1-methyl-1H-imidazol-4-yl)thieno[2,3-d]pyrimidin-4-amine] | 5 to 10 µM | 76 to 100% | 46 to 75% | 46 to 75% | 46 to 75% |  | 76 to 100% | Y

More lines, main results first:

Row | IC50 (Smad2/3 phosphorylation) | inhibition at 20 µM (KRas Q61H mutant; [1]) | inhibition at 20 µM (KRas Q61H mutant; [2]) | inhibition at 20 µM (Rac-1; [3]) | inhibition at 20 µM (Rac-1; [4]) | IC50 (KRas Q61H mutant; + SOS) | SMILES | inhibition at 10 µM (Smad2/3 phosphorylation) | Activation of MAPK p38 in PANC-1 (MAPK p38)
8 | 5 to 10 µM | 76 to 100% | 26 to 45% | 46 to 75% | 46 to 75% |  | CO[C@H]1CC[C@@H](Nc2nc(-c3nccn3C)nc3sc(-c4ccn(C)n4)c(-c4ccccc4)c23)C1 (racemic) [Compound 5, rac-N-((1R,3S)-3-Methoxycyclopentyl)-2-(1-methyl-1H-imidazol-2-yl)-6-(1-methyl-1H-pyrazol-3-yl)-5-phenylthieno[2,3-d]pyrimidin-4-amine] | 76 to 100% | Y
9 |  | 76 to 100% | 46 to 75% | 26 to 45% | 1 to 25% | 1 to 4.99 µM | CO[C@@H]1CC[C@H](Nc2nc(-c3nccn3C)nc3sc(-c4ccn(C(C)C)n4)c(-c4ccccc4)c23)C1 (single isomer, unassigned) [Compound 11] | 46 to 75% | Y
10 |  |  |  |  | 26 to 45% |  | COCCN(C)c1nc(-c2nccn2C)nc2sc(-c3ccccc3)c(-c3ccccc3)c12 [Compound 2, N-(2-Methoxyethyl)-N-methyl-2-(1-methyl-1H-imidazol-2-yl)-5,6-diphenylthieno[2,3-d]pyrimidin-4-amine] | 0% | Y
11 |  | 46 to 75% | 46 to 75% | 26 to 45% | 26 to 45% |  | COC1CCN(c2nc(-c3nccn3C)nc3sc(-c4ccn(C)n4)c(-c4ccccc4)c23)CC1 [Compound 6, 4-(4-Methoxypiperidin-1-yl)-2-(1-methyl-1H-imidazol-2-yl)-6-(1-methyl-1H-pyrazol-3-yl)-5-phenylthieno[2,3-d]pyrimidine] | 0% | N
